Values of other authors, collected in patent US8101207B2, “Composition containing medicine extremely slightly soluble in water and method for preparation thereof” (Kowa Co., Ltd., priority 2003, dated 2012).

Columns and labels:
interleukin-1β = details: known from Japanese Patent Application Laid-Open (kokai) No. 12-198776

In the case of `CSc1ccc(-c2nn(Cc3ccccc3)c(=O)cc2-c2ccc(Cl)cc2)cc1` [Compound A, 2-benzyl-5-(4-chlorophenyl)-6-[4-(methylthio)phenyl]-2H-pyridazin-3-one], the solubility in water is given as “very low solubility” and the “effect of inhibiting production of interleukin-1β” value (interleukin-1β) is given as “excellent effect”.
